Measurements reported in ChEMBL document CHEMBL1143968, “Lead identification of acetylcholinesterase inhibitors-histamine H3 receptor antagonists from molecular modeling” (Bioorg Med Chem, 2008).
pIC50: −log10 of the molar value.

Key:
Acetylcholinesterase = Acetylcholinesterase (Homo sapiens, UniProt P22303); experiment: Inhibition of AChE
Histamine H3 receptor = Histamine H3 receptor (Homo sapiens, UniProt Q9Y5N1); experiment: Inhibition of histamine H3 receptor
Sequence of Histamine H3 receptor (Q9Y5N1 whole entry): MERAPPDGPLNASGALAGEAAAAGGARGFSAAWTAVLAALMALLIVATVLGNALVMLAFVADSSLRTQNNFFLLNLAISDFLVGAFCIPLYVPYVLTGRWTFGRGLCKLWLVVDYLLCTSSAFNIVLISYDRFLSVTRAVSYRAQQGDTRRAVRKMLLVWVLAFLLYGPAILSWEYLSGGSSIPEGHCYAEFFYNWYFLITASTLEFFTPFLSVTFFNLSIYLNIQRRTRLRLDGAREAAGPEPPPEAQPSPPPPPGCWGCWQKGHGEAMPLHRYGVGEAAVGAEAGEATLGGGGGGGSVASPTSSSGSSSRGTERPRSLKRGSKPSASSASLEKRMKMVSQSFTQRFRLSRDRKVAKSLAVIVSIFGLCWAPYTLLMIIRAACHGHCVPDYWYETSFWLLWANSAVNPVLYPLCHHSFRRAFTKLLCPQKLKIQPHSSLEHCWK

Sequence of Acetylcholinesterase (P22303 whole entry): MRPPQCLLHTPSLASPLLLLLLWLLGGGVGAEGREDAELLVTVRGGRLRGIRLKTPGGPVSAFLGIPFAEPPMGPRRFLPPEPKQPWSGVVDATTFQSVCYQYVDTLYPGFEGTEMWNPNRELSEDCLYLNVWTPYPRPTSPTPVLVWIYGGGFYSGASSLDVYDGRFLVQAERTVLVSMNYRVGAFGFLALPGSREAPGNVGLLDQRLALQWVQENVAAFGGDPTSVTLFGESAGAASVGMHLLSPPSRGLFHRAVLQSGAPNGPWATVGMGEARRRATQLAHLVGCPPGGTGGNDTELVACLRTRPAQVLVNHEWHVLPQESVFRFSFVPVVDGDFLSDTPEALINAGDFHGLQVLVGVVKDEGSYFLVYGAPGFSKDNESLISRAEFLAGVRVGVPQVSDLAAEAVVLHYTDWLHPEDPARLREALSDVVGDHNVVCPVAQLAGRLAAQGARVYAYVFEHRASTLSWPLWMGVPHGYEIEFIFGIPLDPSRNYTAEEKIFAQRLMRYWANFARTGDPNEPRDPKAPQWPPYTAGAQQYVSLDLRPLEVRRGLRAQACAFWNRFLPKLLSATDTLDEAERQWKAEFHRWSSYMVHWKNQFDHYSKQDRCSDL

Row | Compound | pIC50 (Acetylcholinesterase) | pIC50 (Histamine H3 receptor)
1 | c1cc(OCCCN2CCCCC2)ccc1CN1CCCCC1 [JNJ-5207852] | 5.49 | 
2 | OC1CCN(Cc2ccc(OCCCN3CCCCC3)cc2)CC1 | 5.64 | 9.14
3 | OCC1CCN(Cc2ccc(OCCCN3CCCCC3)cc2)CC1 | 5.96 | 8.89
4 | C[N+](C)(C)CCCCCCCCCC[N+](C)(C)C [DECAMETHONIUM] | 5.23 | 6.09
5 | COc1cc2c(cc1OC)C(=O)C(CC1CCN(Cc3ccccc3)CC1)C2 (stereo not given) [DONEPEZIL] |  | 6.46
6 | OCCC1CCN(Cc2ccc(OCCCN3CCCCC3)cc2)CC1 | 6.46 | 9.01
